Data: US20250296971A1, “GASTRIC INHIBITORY PEPTIDE RECEPTOR LIGANDS” (priority 2021, published 2025)
*1 amine or outer side, *2 acyl side, *3 side chain or, on linkers, in order; H or OH if unused. Where a SMILES comes first, the peptide text is derived from it. Bridges are numbered along the chain shown (N, C = ends). Side-chain parts run from the residue outwards. [ ]: non-standard residue; d: D form. The star is where a group is joined. DOTA(In) = O=C1CN2CCN3CCN(CC(=O)*)CCN(CC2)CC(=O)[O][In]([O]1)[O]C(=O)C3; NH(1-deoxy-D-glucityl) = OC[C@@H](O)[C@@H](O)[C@H](O)[C@@H](O)CN*; Pro(trans-4-NH2) = O=C([C@@H]1C[C@@H](N[*:3])CN1[*:1])[*:2]; DOTA = O=C(O)CN1CCN(CC(=O)O)CCN(CC(=O)*)CCN(CC(=O)O)CC1; Trp(5-Cl) = N[C@@H](Cc1c[nH]c2ccc(Cl)cc12)C(=O)O; Pyridine(2,6-diCH2) = c1cc(C[*:1])nc(C[*:2])c1; Pro(4R-NH2) = N[C@H]1CN[C@H](C(=O)O)C1; Glutaryl = O=C(CCCC(=O)[*:2])[*:1]; X6 = c1cc(CSCCN[*:2])nc(C[*:1])c1; Hyp = O=C(O)[C@@H]1C[C@@H](O)CN1; X1 = O=C(CN1CCC(N[*:1])CC1)[*:2]; Suc = O=C(CCC(=O)[*:2])[*:1]; hSer = N[C@@H](CCO)C(=O)O; Api = NC1(C(=O)O)CCNCC1; Thp = NC1(C(=O)O)CCOCC1

Experiments:
[1] = target: T1, human GIP receptor (bioGIPR) (Homo sapiens, UniProt P48546); assay: Surface plasmon resonance (SPR) based binding assay; details: Single Cycle Kinetic mode, 25° C.; for t1/2 Category: SPR dissociation half-life; for Kd: SPR, 1:1 Langmuir binding model, read-out: pKD Category (converted)
T1 construct: Biotinylate extracellular of the human GIP receptor (bioGIPR, Proteros biostructures GmbH, lot #02/2b); purchased Proteros biostructures GmbH lot #02/2b
T1 sequence (P48546 22-138 limits assumed): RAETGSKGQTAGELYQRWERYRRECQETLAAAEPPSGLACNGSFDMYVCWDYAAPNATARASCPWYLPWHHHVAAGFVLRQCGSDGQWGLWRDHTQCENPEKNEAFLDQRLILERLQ
How it was run: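 Binding was measured at 25 °C by single-cycle kinetics against a reference flow cell, with blank-run and drift correction, after capturing biotinylated GIPR extracellular domain to ~3500 RU. Running buffer: HBST, 0.1% DMSO. A 1:1 Langmuir model gave kinetic rates, KD, t1/2 and pKD.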

[2] = target: T2, GIPR (CHO-K1-hGIPR cells) (Homo sapiens, UniProt P48546); assay: FACS binding assay; details: competition with 20 nM GIP-057, 4° C., 1 hour, read-out: pIC50 Category (converted)
T2 construct: host or cells: CHO-K1
T2 sequence (P48546 22-466): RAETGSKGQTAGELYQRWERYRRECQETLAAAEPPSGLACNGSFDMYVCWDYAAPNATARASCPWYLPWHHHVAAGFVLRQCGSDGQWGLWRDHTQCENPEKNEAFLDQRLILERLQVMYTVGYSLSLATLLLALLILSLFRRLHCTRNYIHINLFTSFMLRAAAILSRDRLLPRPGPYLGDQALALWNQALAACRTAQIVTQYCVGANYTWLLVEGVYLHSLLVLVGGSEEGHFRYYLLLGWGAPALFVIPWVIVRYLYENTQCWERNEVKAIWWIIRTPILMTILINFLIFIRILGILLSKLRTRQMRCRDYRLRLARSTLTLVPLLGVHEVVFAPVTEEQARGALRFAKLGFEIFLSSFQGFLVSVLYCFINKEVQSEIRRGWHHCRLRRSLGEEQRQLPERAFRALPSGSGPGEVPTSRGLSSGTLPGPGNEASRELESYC
How it was run: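 Steps: detach CHO-K1-hGIPR cells (Accutase); wash in PBS/1% FCS; adjust to 500.000 cells per mL; wash ice-cold; incubate APC-streptavidin 1 μg/mL, 30 min on ice; wash twice; acquire on flow cytometer; fit MFI-concentration data with a four-parameter logistic model.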

Row | SMILES | t1/2 Category [1] | Kd [1] | IC50 [2]
1 | CC[C@H](C)[C@@H]1NC(=O)[C@H](CC(C)C)NC(=O)C2(CCN(C(=O)CN3CCN(CC(=O)O)CCN(CC(=O)O)CCN(CC(=O)O)CC3)CC2)NC(=O)[C@@H](NC(=O)[C@@H](CC(C)C)NC(=O)[C@H](CCO)NC(=O)[C@@H]2C[C@@H](N)CN2C(=O)[C@H](Cc2c[nH]c3ccc(Cl)cc23)NC(=O)[C@H](Cc2c[nH]c3ccccc23)NC(=O)[C@H](CO)NC(=O)CN2CCC(NC(=O)CCCC(=O)NC[C@H](O)[C@@H](O)[C@H](O)[C@H](O)CO)CC2)CSCc2cccc(n2)CSC[C@@H](C(=O)NC2CCN(CC(=O)N[C@H](CCC(=O)NC[C@H](O)[C@@H](O)[C@H](O)[C@H](O)CO)C(N)=O)CC2)NC1=O [GIP-048, AGLU-Glutar-APAc-Ser-Trp-5Clw-Tap-Hse-leu-[Cys(2Lut)-Apc(DOTA)-Leu-Ile-Cys]-APAc-glu(AGLU)-NH2] ({NH(1-deoxy-D-glucityl)-Glutaryl}-[X1]SW[Trp(5-Cl)][Pro(4R-NH2)][hSer][dL]C[Api](DOTA)LIC[X1][dE](NH(1-deoxy-D-glucityl))-NH2; linker 8-12 via Pyridine(2,6-diCH2)) | D (t1/2<2.0 min) | 1 to 7.94 nM | 10 to 79.4 nM
2 | CC[C@H](C)[C@@H]1NC(=O)[C@H](CC(C)C)NC(=O)C2(CCN(C(=O)CN3CCN(CC(=O)O)CCN(CC(=O)O)CCN(CC(=O)O)CC3)CC2)NC(=O)[C@@H](NC(=O)[C@@H](CC(C)C)NC(=O)[C@H](CCC(=O)O)NC(=O)[C@@H]2C[C@@H](O)CN2C(=O)[C@H](Cc2c[nH]c3ccc(Cl)cc23)NC(=O)[C@H](Cc2c[nH]c3ccccc23)NC(=O)CCC(=O)O)CSCc2cccc(n2)CSCCNC1=O [GIP-110, HO-Succinyl-Trp-5Clw-Hyp-Glu-leu-[Cys(2Lut)-Apc(DOTA)-Leu-Ile-AET]] (Suc-W[Trp(5-Cl)][Hyp]E[dL]C[Api](DOTA)LI; linker 6-C via X6) | A (t1/2 values>15 min) | < 1 nM | < 10 nM
3 | CC[C@H](C)[C@@H]1NC(=O)[C@H](CC(C)C)NC(=O)C2(CCN(C(=O)CN3CCN(CC(=O)O)CCN(CC(=O)O)CCN(CC(=O)O)CC3)CC2)NC(=O)[C@@H](NC(=O)[C@@H](CC(C)C)NC(=O)[C@H](CCC(=O)O)NC(=O)[C@@H]2C[C@@H](NC(=O)CCCC(=O)NC[C@H](O)[C@@H](O)[C@H](O)[C@H](O)CO)CN2C(=O)[C@H](Cc2c[nH]c3ccc(Cl)cc23)NC(=O)[C@H](Cc2c[nH]c3ccccc23)NC(=O)[C@H](CC(=O)O)NC(=O)CN2CCC(NC(=O)CCCC(=O)NC[C@H](O)[C@@H](O)[C@H](O)[C@H](O)CO)CC2)CSCc2cccc(n2)CSC[C@@H](C(=O)NC2CCN(CC(=O)N[C@H](CCC(=O)NC[C@H](O)[C@@H](O)[C@H](O)[C@H](O)CO)C(N)=O)CC2)NC1=O [GIP-006, AGLU-Glutar-APAc-Asp-Trp-5Clw-Tap(AGLU-Glutar)-Glu-leu-[Cys(2Lut)-Apc(DOTA)-Leu-Ile-Cys]-APAc-glu(AGLU)-NH2] ({NH(1-deoxy-D-glucityl)-Glutaryl}-[X1]DW[Trp(5-Cl)][Pro(trans-4-NH2)]([Glutaryl-NH(1-deoxy-D-glucityl)])E[dL]C[Api](DOTA)LIC[X1][dE](NH(1-deoxy-D-glucityl))-NH2; linker 8-12 via Pyridine(2,6-diCH2)) | A (t1/2 values>15 min) | < 1 nM | < 10 nM
4 | CC[C@H](C)[C@@H]1NC(=O)[C@H](CC(C)C)NC(=O)C2(CCOCC2)NC(=O)[C@@H](NC(=O)[C@@H](CC(C)C)NC(=O)[C@H](CCC(=O)O)NC(=O)[C@@H]2C[C@@H](O)CN2C(=O)[C@H](Cc2c[nH]c3ccc(Cl)cc23)NC(=O)[C@H](Cc2c[nH]c3ccccc23)NC(=O)[C@H](CC(=O)O)NC(=O)CN2CCC(NC(=O)CN3CCN4CCN5CCN(CC3)CC(=O)[O][In]([O]C(=O)C4)[O]C(=O)C5)CC2)CSCc2cccc(n2)CSCCNC1=O [GIP-155, InDOTA-APAc-Asp-Trp-5Clw-Hyp-Glu-leu-[Cys(2Lut)-Thp-Leu-Ile-AET]] ({DOTA(In)}-[X1]DW[Trp(5-Cl)][Hyp]E[dL]C[Thp]LI; linker 8-C via X6) | – | < 1 nM | < 10 nM
